According to ChEMBL document CHEMBL4308841, “Synthesis, in vitro antiproliferative activity, and kinase inhibitory effects of pyrazole-containing diarylureas and diarylamides” (Eur J Med Chem, 2018):

Key:
[1] = system: CCRF-CEM; experiment: Growth inhibition of human CCRF-CEM cells assessed as cell growth at 0.1 uM incubated for 48 hrs by sulforhodamine B assay relative to control; format: functional; settings: read-out: Activity
[2] = system: DU-145; experiment: Growth inhibition of human DU145 cells assessed as cell growth at 0.01 uM incubated for 48 hrs by sulforhodamine B assay relative to control; format: functional; settings: DU-145, 48 h, read-out: Activity
[3] = system: PC-3; experiment: Growth inhibition of human PC3 cells assessed as cell growth at 1 uM incubated for 48 hrs by sulforhodamine B assay relative to control; format: functional; settings: PC-3, 48 h, read-out: Activity
[4] = system: OVCAR-8; experiment: Growth inhibition of human OVCAR8 cells incubated for 48 hrs by sulforhodamine B assay; format: functional, cell-based; settings: OVCAR-8, 48 h
[5] = system: LOX IMVI; experiment: Growth inhibition of human LOXIMVI cells assessed as cell growth at 0.01 uM incubated for 48 hrs by sulforhodamine B assay relative to control; format: functional; settings: read-out: Activity
[6] = system: MCF7; experiment: Growth inhibition of human MCF7 cells assessed as cell growth at 100 uM incubated for 48 hrs by sulforhodamine B assay relative to control; format: functional; settings: MCF7, 48 h, read-out: Activity
[7] = system: CCRF-CEM; experiment: Growth inhibition of human CCRF-CEM cells incubated for 48 hrs by sulforhodamine B assay; format: functional, cell-based
[8] = system: 786-0; experiment: Growth inhibition of human 786-0 cells assessed as cell growth at 0.01 uM incubated for 48 hrs by sulforhodamine B assay relative to control; format: functional; settings: 786-0, 48 h, read-out: Activity
[9] = system: CAKI-1; experiment: Growth inhibition of human Caki1 cells assessed as cell growth at 0.1 uM incubated for 48 hrs by sulforhodamine B assay relative to control; format: functional; settings: CAKI-1, 48 h, read-out: Activity
[10] = system: MDA-MB-468; experiment: Growth inhibition of human MDA-MB-468 cells assessed as cell growth at 0.1 uM incubated for 48 hrs by sulforhodamine B assay relative to control; format: functional; settings: MDA-MB-468, 48 h, read-out: Activity
[11] = system: SR; experiment: Growth inhibition of human SR cells assessed as cell growth at 1 uM incubated for 48 hrs by sulforhodamine B assay relative to control; format: functional; settings: read-out: Activity
[12] = system: SF-268; experiment: Growth inhibition of human SF268 cells assessed as cell growth at 0.01 uM incubated for 48 hrs by sulforhodamine B assay relative to control; format: functional; settings: SF-268, 48 h, read-out: Activity
[13] = system: SF-295; experiment: Growth inhibition of human SF295 cells assessed as cell growth at 1 uM incubated for 48 hrs by sulforhodamine B assay relative to control; format: functional; settings: SF-295, 48 h, read-out: Activity
[14] = system: NCI-H23; experiment: Growth inhibition of human NCI-H23 cells assessed as cell growth at 0.01 uM incubated for 48 hrs by sulforhodamine B assay relative to control; format: functional; settings: NCI-H23, 48 h, read-out: Activity
[15] = system: OVCAR-4; experiment: Growth inhibition of human OVCAR4 cells assessed as cell growth at 0.01 uM incubated for 48 hrs by sulforhodamine B assay relative to control; format: functional; settings: OVCAR-4, 48 h, read-out: Activity
[16] = system: CCRF-CEM; experiment: Growth inhibition of human CCRF-CEM cells assessed as cell growth at 1 uM incubated for 48 hrs by sulforhodamine B assay relative to control; format: functional; settings: read-out: Activity
[17] = system: ACHN; experiment: Growth inhibition of human ACHN cells assessed as cell growth at 100 uM incubated for 48 hrs by sulforhodamine B assay relative to control; format: functional; settings: read-out: Activity
[18] = system: CAKI-1; experiment: Growth inhibition of human Caki1 cells assessed as cell growth at 0.01 uM incubated for 48 hrs by sulforhodamine B assay relative to control; format: functional; settings: CAKI-1, 48 h, read-out: Activity
[19] = system: Hs-578T; experiment: Growth inhibition of human Hs578T cells assessed as cell growth at 0.1 uM incubated for 48 hrs by sulforhodamine B assay relative to control; format: functional; settings: read-out: Activity
[20] = system: NCI-H23; experiment: Growth inhibition of human NCI-H23 cells assessed as cell growth at 100 uM incubated for 48 hrs by sulforhodamine B assay relative to control; format: functional; settings: NCI-H23, 48 h, read-out: Activity
[21] = system: SN12C; experiment: Growth inhibition of human SN12C cells assessed as cell growth at 0.01 uM incubated for 48 hrs by sulforhodamine B assay relative to control; format: functional; settings: read-out: Activity
[22] = system: MCF7; experiment: Growth inhibition of human MCF7 cells assessed as cell growth at 0.1 uM incubated for 48 hrs by sulforhodamine B assay relative to control; format: functional; settings: MCF7, 48 h, read-out: Activity
[23] = system: NCI-H322M; experiment: Growth inhibition of human NCI-H322M cells assessed as cell growth at 0.1 uM incubated for 48 hrs by sulforhodamine B assay relative to control; format: functional; settings: read-out: Activity
[24] = system: K562; experiment: Growth inhibition of human K562 cells incubated for 48 hrs by sulforhodamine B assay; format: functional, cell-based; settings: K562, 48 h
[25] = system: UO-31; experiment: Growth inhibition of human UO31 cells assessed as cell growth at 0.01 uM incubated for 48 hrs by sulforhodamine B assay relative to control; format: functional; settings: UO-31, 48 h, read-out: Activity
[26] = system: IGROV-1; experiment: Growth inhibition of human IGROV1 cells assessed as cell growth at 0.1 uM incubated for 48 hrs by sulforhodamine B assay relative to control; format: functional; settings: IGROV-1, 48 h, read-out: Activity
[27] = system: ACHN; experiment: Growth inhibition of human ACHN cells assessed as cell growth at 0.1 uM incubated for 48 hrs by sulforhodamine B assay relative to control; format: functional; settings: read-out: Activity
[28] = system: M14; experiment: Growth inhibition of human M14 cells assessed as cell growth at 0.01 uM incubated for 48 hrs by sulforhodamine B assay relative to control; format: functional; settings: M14, 48 h, read-out: Activity
[29] = system: Hs-578T; experiment: Growth inhibition of human Hs578T cells incubated for 48 hrs by sulforhodamine B assay; format: functional, cell-based
[30] = system: SK-OV-3; experiment: Growth inhibition of human SKOV3 cells assessed as cell growth at 0.01 uM incubated for 48 hrs by sulforhodamine B assay relative to control; format: functional; settings: SK-OV-3, 48 h, read-out: Activity
[31] = system: MCF7; experiment: Growth inhibition of human MCF7 cells assessed as cell growth at 1 uM incubated for 48 hrs by sulforhodamine B assay relative to control; format: functional; settings: MCF7, 48 h, read-out: Activity
[32] = system: NCI-H226; experiment: Growth inhibition of human NCI-H226 cells assessed as cell growth at 0.01 uM incubated for 48 hrs by sulforhodamine B assay relative to control; format: functional; settings: NCI-H226, 48 h, read-out: Activity
[33] = read-out: LC50 (the source's name)
[34] = read-out: pLC50 (the source's name) (converted)

## COc1cc(Cl)cc(-c2nn(-c3cccc(NC(=O)Nc4ccc(Cl)c(Cl)c4)c3)cc2-c2ccncc2)c1
[1]
  growth at 0.1 µM: 97%
[2]
  growth at 0.01 µM: 101%
[3]
  growth at 1 µM: 54%
[4]; read-out: GI50
  GI50: 2.3 µM
[4]; [33]
  CC50: > 100 µM
[4]; read-out: TGI
  TGI: 11.2 µM
[4]; read-out: pGI50 (converted)
  GI50: 2.29 µM
[4]; [34]
  CC50: > 100 µM
[4]; read-out: pTGI (converted)
  TGI: 11.2 µM
[5]
  growth at 0.01 µM: 96%
[6]
  growth at 100 µM: -13%
[7]; read-out: GI50
  GI50: 2 µM
[7]; [33]
  CC50: > 100 µM
[7]; read-out: TGI
  TGI: 50 µM
[7]; read-out: pGI50 (converted)
  GI50: 2 µM
[7]; [34]
  CC50: > 100 µM
[7]; read-out: pTGI (converted)
  TGI: 6.03 µM
[8]
  growth at 0.01 µM: 100%
[9]
  growth at 0.1 µM: 102%
[10]
  growth at 0.1 µM: 97%
[11]
  growth at 1 µM: 68%
[12]
  growth at 0.01 µM: 95%
[13]
  growth at 1 µM: 70%
[14]
  growth at 0.01 µM: 93%
[15]
  growth at 0.01 µM: 93%
[16]
  growth at 1 µM: 82%
[17]
  growth at 100 µM: 6%
[18]
  growth at 0.01 µM: 96%
[19]
  growth at 0.1 µM: 97%
[20]
  growth at 100 µM: -20%
[21]
  growth at 0.01 µM: 97%
[22]
  growth at 0.1 µM: 94%
[23]
  growth at 0.1 µM: 90%
[24]; read-out: GI50
  GI50: 1 µM
[24]; read-out: LC50
  LC50: > 100 µM
[24]; read-out: TGI
  TGI: > 100 µM
[24]; read-out: pGI50 (converted)
  GI50: 1.95 µM
[24]; read-out: pLC50 (converted)
  LC50: > 100 µM
[24]; read-out: pTGI (converted)
  TGI: > 100 µM
[25]
  growth at 0.01 µM: 89%
[26]
  growth at 0.1 µM: 101%
[27]
  growth at 0.1 µM: 96%
[28]
  growth at 0.01 µM: 97%
[29]; read-out: GI50
  GI50: 3.59 µM
[29]; [33]
  CC50: > 100 µM
[29]; read-out: TGI
  TGI: > 100 µM
[29]; read-out: pGI50 (converted)
  GI50: 3.89 µM
[29]; [34]
  CC50: > 100 µM
[29]; read-out: pTGI (converted)
  TGI: > 100 µM
[30]
  growth at 0.01 µM: 100%
[31]
  growth at 1 µM: 83%
[32]
  growth at 0.01 µM: 96%
